Data reported in patent publication US9382228B2 (priority 2013, dated 2016).

Experiments:
[1] = test system: phospho-FMS in THP-1 cells; assay: cells; settings: Homo sapiens, THP-1, read-out: pFMS inhibition in THP-1 cells
[2] = molecular target: unphosphorylated PDGFRβ kinase (uPDGFRβ, Seq. ID No. 3) (Homo sapiens, UniProt P09619); assay: biochemical
M-NFS-60 cells = assay: cells; settings: 67 h, read-out: M-NFS-60 cell proliferation
Method: M-NFS-6 Cell Proliferation Assay
A serial dilution of test compound was dispensed into a 384-well black clear bottom plate (Corning, Corning, N.Y.). Two thousand five hundred cells were added per well in 50 μL complete growth medium. […] IC50 values were calculated from a series of percent inhibition values determined at a range of inhibitor concentrations using software routines as implemented in the GraphPad Prism software package.

[3] = molecular target: unphosphorylated c-KIT kinase (uKIT, Seq. ID no. 2) (Homo sapiens, UniProt P10721); assay: biochemical
Chain of unphosphorylated c-KIT kinase (uKIT, Seq. ID no. 2) (P10721 with tags, fused parts or gaps): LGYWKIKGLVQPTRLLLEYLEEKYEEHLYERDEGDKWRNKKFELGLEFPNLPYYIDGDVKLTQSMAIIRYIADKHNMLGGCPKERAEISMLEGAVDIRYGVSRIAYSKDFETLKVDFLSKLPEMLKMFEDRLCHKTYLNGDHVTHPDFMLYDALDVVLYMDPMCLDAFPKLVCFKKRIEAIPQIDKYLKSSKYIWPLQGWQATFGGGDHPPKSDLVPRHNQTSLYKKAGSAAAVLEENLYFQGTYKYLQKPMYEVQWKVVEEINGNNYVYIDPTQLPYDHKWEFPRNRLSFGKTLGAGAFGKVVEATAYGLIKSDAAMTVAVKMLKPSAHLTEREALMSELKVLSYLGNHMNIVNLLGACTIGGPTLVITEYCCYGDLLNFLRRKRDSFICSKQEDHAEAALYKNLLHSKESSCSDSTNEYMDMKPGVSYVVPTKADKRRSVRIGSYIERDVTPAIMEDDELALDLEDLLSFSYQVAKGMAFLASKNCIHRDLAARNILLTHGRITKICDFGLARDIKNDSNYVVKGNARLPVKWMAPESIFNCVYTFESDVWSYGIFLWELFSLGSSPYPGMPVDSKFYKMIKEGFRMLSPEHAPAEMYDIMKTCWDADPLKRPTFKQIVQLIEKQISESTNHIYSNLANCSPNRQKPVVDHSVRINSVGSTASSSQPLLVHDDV
Method: uKit kinase (Seq. ID No. 2) Assay
In this assay, the oxidation of NADH (thus the decrease at A340 nm) was continuously monitored spectrophometrically. […] The inhibition reaction was started by mixing serial diluted test compound with the above reaction mixture. The absorption at 340 nm was monitored continuously for 4 hours at 30° C. on Synergy 2 plate reader (BioTech).

[4] = molecular target: T1, unphosphorylated c-FMS kinase (uFMS, Seq. ID no. 1) (Homo sapiens, UniProt P07333); assay: biochemical
T1 sequence (P07333 538-972): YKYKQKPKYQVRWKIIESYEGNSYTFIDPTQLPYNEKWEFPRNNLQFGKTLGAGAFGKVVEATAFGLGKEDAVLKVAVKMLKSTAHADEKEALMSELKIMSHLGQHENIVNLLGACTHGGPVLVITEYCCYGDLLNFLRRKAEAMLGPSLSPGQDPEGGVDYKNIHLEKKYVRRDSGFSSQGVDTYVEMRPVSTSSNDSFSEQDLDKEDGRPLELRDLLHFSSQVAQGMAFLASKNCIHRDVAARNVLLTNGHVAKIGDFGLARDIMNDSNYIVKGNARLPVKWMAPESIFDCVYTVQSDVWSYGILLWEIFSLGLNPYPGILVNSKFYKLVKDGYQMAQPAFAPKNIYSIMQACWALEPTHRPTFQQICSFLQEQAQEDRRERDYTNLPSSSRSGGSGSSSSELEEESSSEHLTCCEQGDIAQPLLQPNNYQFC

osteoclast precursors = assay: cells; format: cell-based; settings: read-out: Osteoclast assay
[5] = uPDGFRb, enzymatic assay, ATP 500 μM
[6] = uKIT, enzymatic assay, ATP 2000 μM
[7] = uFMS, enzymatic assay, ATP 500 μM

Chain of unphosphorylated PDGFRβ kinase (uPDGFRβ, Seq. ID No. 3) (P09619 557-1106): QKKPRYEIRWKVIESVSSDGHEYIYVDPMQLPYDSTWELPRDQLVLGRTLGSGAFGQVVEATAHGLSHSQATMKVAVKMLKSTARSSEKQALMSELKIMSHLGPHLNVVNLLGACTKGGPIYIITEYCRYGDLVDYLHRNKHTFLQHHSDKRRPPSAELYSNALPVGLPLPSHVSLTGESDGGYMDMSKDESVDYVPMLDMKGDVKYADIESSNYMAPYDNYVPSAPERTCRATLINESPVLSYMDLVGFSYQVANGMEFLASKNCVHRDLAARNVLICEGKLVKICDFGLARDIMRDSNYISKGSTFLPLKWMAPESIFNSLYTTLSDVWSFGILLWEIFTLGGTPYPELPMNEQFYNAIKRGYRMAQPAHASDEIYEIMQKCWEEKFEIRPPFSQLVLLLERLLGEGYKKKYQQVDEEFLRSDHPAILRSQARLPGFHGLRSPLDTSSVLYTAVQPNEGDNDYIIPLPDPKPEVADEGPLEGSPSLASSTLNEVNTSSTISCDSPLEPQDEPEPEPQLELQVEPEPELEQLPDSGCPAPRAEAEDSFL

Row | IC50 [1] | IC50 [2, 5] | IC50 [3, 6] | IC50 [4, 7] | IC50 (osteoclast precursors) | IC50 ([2]; IC50 (nM) uPDGFRβ, Table 3) | IC50 ([3]; IC50 (nM) uKIT, Table 3) | IC50 ([4]; IC50 (nM) uFMS, Table 3) | Structure (SMILES) | IC50 (M-NFS-60 cells)
1 | < 10 nM | > 1000 nM | > 1000 nM | < 10 nM | 10 to 100 nM |  |  |  | COC(C)(C)C(=O)NC(=O)Nc1cc(C)c(Oc2ccnc(-n3cnc(C)c3)c2)cn1 [Example 164, 2-methoxy-2-methyl-N-((4-methyl-5-((2-(4-methyl-1H-imidazol-1-yl)pyridin-4-yl)oxy)pyridin-2-yl)carbamoyl)propanamide] | < 10 nM
2 | < 10 nM | > 1000 nM | > 1000 nM | < 10 nM | < 10 nM |  |  |  | CCn1cc(-c2cc(Oc3ccc(NC(=O)NC(=O)C(C)C)nc3C)ccn2)cn1 [Example 61, N-((5-((2-(1-ethyl-1H-pyrazol-4-yl)pyridin-4-yl)oxy)-6-methylpyridin-2-yl)carbamoyl)isobutyramide] | 10 to 100 nM
3 | < 10 nM | > 1000 nM | > 1000 nM | < 10 nM | 10 to 100 nM |  |  |  | Cc1nc(NC(=O)NC(=O)C(C)(C)C)ccc1Oc1ccnc(-c2cncs2)c1 [Example 131, N-((6-methyl-5-((2-(thiazol-5-yl)pyridin-4-yl)oxy)pyridin-2-yl)carbamoyl)pivalamide] | 10 to 100 nM
4 | 10 to 100 nM | 100 to 1000 nM | 100 to 1000 nM | < 10 nM | < 10 nM |  |  |  | CCOC(C)(C)C(=O)NC(=O)Nc1ccc(Oc2ccnc(-c3cnn(C)c3)c2)c(C)n1 [Example 127, 2-ethoxy-2-methyl-N-((6-methyl-5-((2-(1-methyl-1H-pyrazol-4-yl)pyridin-4-yl)oxy)pyridin-2-yl)carbamoyl)propanamide] | 10 to 100 nM
5 | < 10 nM | > 1000 nM | 100 to 1000 nM | < 10 nM | < 10 nM |  |  |  | Cn1cc(-c2cc(Oc3ccc(NC(=O)NC(=O)C4CC4)nc3)ccn2)cn1 [Example 51, N-((5-((2-(1-methyl-1H-pyrazol-4-yl)pyridin-4-yl)oxy)pyridin-2-yl)carbamoyl)cyclopropanecarboxamide] | 10 to 100 nM
6 | 10 to 100 nM | 10 to 100 nM | < 10 nM | < 10 nM | < 10 nM |  |  |  | Cc1nc(NC(=O)NC(=O)CCC2(C(F)(F)F)CC2)ccc1Oc1ccnc(-c2cnn(C)c2)c1 [Example 11, N-((6-methyl-5-((2-(1-methyl-1H-pyrazol-4-yl)pyridin-4-yl)oxy)pyridin-2-yl)carbamoyl)-3-(1-(trifluoromethyl)cyclopropyl)propanamide] | < 10 nM
7 | 10 to 100 nM | 10 to 100 nM | 100 to 1000 nM | < 10 nM | < 10 nM |  |  |  | Cn1cc(-c2cc(Oc3ccc(NC(=O)NC(=O)C4(C(F)(F)F)CC4)nc3)ccn2)cn1 [Example 33, N-((5-((2-(1-methyl-1H-pyrazol-4-yl)pyridin-4-yl)oxy)pyridin-2-yl)carbamoyl)-1-(trifluoromethyl)cyclopropanecarboxamide] | 10 to 100 nM
8 | < 10 nM | 100 to 1000 nM | 10 to 100 nM | < 10 nM | 10 to 100 nM |  |  |  | COC(C)(C)C(=O)NC(=O)Nc1cc(C)c(Oc2ccnc(-c3cnn(C)c3)c2)c(C)n1 [Example 140, N-((4,6-dimethyl-5-((2-(1-methyl-1H-pyrazol-4-yl)pyridin-4-yl)oxy)pyridin-2-yl)carbamoyl)-2-methoxy-2-methylpropanamide] | < 10 nM
9 | 10 to 100 nM | 100 to 1000 nM | 100 to 1000 nM | < 10 nM | < 10 nM |  |  |  | Cc1nc(NC(=O)NC(=O)C2(C(F)(F)F)CC2)ccc1Oc1ccnc(-c2cnn(C)c2)c1 [Example 34, N-((6-methyl-5-((2-(1-methyl-1H-pyrazol-4-yl)pyridin-4-yl)oxy)pyridin-2-yl)carbamoyl)-1-(trifluoromethyl)cyclopropanecarboxamide] | 10 to 100 nM
10 | < 10 nM | 10 to 100 nM | < 10 nM | < 10 nM | < 10 nM |  |  |  | Cc1nc(NC(=O)NC(=O)C2CC3(CCC3)C2)ccc1Oc1ccnc(-c2cnn(C)c2)c1 [Example 32, N-((6-methyl-5-((2-(1-methyl-1H-pyrazol-4-yl)pyridin-4-yl)oxy)pyridin-2-yl)carbamoyl)spiro[3.3]heptane-2-carboxamide] | 10 to 100 nM
11 | < 10 nM | > 1000 nM | > 1000 nM | < 10 nM | 10 to 100 nM |  |  |  | CCn1cc(-c2cc(Oc3ccc(NC(=O)NC(=O)C(C)(C)C)nc3C)ccn2)cn1 [Example 60, N-((5-((2-(1-ethyl-1H-pyrazol-4-yl)pyridin-4-yl)oxy)-6-methylpyridin-2-yl)carbamoyl)pivalamide] | 10 to 100 nM
12 | < 10 nM | 100 to 1000 nM | > 1000 nM | < 10 nM | < 10 nM |  |  |  | COC(C)(C)C(=O)NC(=O)Nc1ccc(Oc2ccnc(-c3ccc(C)nc3)c2)cn1 [Example 72, 2-methoxy-2-methyl-N-((5-((6′-methyl-[2,3′-bipyridin]-4-yl)oxy)pyridin-2-yl)carbamoyl)propanamide] | 10 to 100 nM
13 | 10 to 100 nM | 100 to 1000 nM | > 1000 nM | < 10 nM | 10 to 100 nM |  |  |  | COC1(C(=O)NC(=O)Nc2ccc(Oc3ccnc(-n4cnc(C)c4)c3)cn2)CCCC1 [Example 154, 1-methoxy-N-((5-((2-(4-methyl-1H-imidazol-1-yl)pyridin-4-yl)oxy)pyridin-2-yl)carbamoyl)cyclopentanecarboxamide] | 10 to 100 nM
14 | 10 to 100 nM | > 1000 nM | > 1000 nM | < 10 nM | < 10 nM |  |  |  | Cc1ccc(-c2cc(Oc3ccc(NC(=O)NC(=O)C(C)C)nc3C)ccn2)cn1 [Example 71, N-((6-methyl-5-((6′-methyl-[2,3′-bipyridin]-4-yl)oxy)pyridin-2-yl)carbamoyl)isobutyramide] | 10 to 100 nM
15 | 10 to 100 nM | > 1000 nM | > 1000 nM | 10 to 100 nM | 10 to 100 nM |  |  |  | Cn1cc(-c2cc(Oc3cnc(NC(=O)NC(=O)C(C)(C)C)cn3)ccn2)cn1 [Example 176, N-((5-((2-(1-methyl-1H-pyrazol-4-yl)pyridin-4-yl)oxy)pyrazin-2-yl)carbamoyl)pivalamide] | > 1000 nM
16 | 10 to 100 nM | 10 to 100 nM | 100 to 1000 nM | < 10 nM | 10 to 100 nM |  |  |  | Cc1cc(NC(=O)NC(=O)C2(C)CCOCC2)nc(C)c1Oc1ccnc(-c2cnn(C)c2)c1 [Example 165, N-((4,6-dimethyl-5-((2-(1-methyl-1H-pyrazol-4-yl)pyridin-4-yl)oxy)pyridin-2-yl)carbamoyl)-4-methyltetrahydro-2H-pyran-4-carboxamide] | 10 to 100 nM
17 | 10 to 100 nM | 100 to 1000 nM | > 1000 nM | 10 to 100 nM | 10 to 100 nM |  |  |  | Cc1ncc(-c2cc(Oc3ccc(NC(=O)NC(=O)C4(C)CCOCC4)nc3)ccn2)s1 [Example 158, 4-methyl-N-((5-((2-(2-methylthiazol-5-yl)pyridin-4-yl)oxy)pyridin-2-yl)carbamoyl)tetrahydro-2H-pyran-4-carboxamide] | 10 to 100 nM
18 | 10 to 100 nM | 100 to 1000 nM | > 1000 nM | < 10 nM | < 10 nM | 922 nM | 2600 nM | 4 nM | Cc1ncc(-c2cc(Oc3ccc(NC(=O)NC(=O)C(C)(C)C)nc3)ccn2)s1 [Example 70, N-((5-((2-(2-methylthiazol-5-yl)pyridin-4-yl)oxy)pyridin-2-yl)carbamoyl)pivalamide] | 10 to 100 nM
19 | 100 to 1000 nM | > 1000 nM | > 1000 nM | < 10 nM | 10 to 100 nM |  |  |  | CCc1nc(NC(=O)NC(=O)C2CCOCC2)ccc1Oc1ccnc(-c2cnn(C)c2)c1 [Example 83, N-((6-ethyl-5-((2-(1-methyl-1H-pyrazol-4-yl)pyridin-4-yl)oxy)pyridin-2-yl)carbamoyl)tetrahydro-2H-pyran-4-carboxamide] | 10 to 100 nM
20 | 10 to 100 nM | 10 to 100 nM | 100 to 1000 nM | < 10 nM | < 10 nM |  |  |  | COC1(C(=O)NC(=O)Nc2ccc(Oc3ccnc(-c4ccc(C)nc4)c3)cn2)CC1 [Example 126, 1-methoxy-N-((5-((6′-methyl-[2,3′-bipyridin]-4-yl)oxy)pyridin-2-yl)carbamoyl)cyclopropanecarboxamide] | 10 to 100 nM
21 | 100 to 1000 nM | > 1000 nM | > 1000 nM | 10 to 100 nM | 100 to 1000 nM |  |  |  | CN1CCN(CC(=O)NC(=O)Nc2ccc(Oc3ccnc(-c4cnn(C)c4)c3)cn2)CC1 [Example 49, N-((5-((2-(1-methyl-1H-pyrazol-4-yl)pyridin-4-yl)oxy)pyridin-2-yl)carbamoyl)-2-(4-methylpiperazin-1-yl)acetamide] | > 1000 nM
